Source: patent publication US20240002393A1, “SUBSTITUTED BENZO[f][l ,2,4JTRIAZOL0[4,3-a][l ,4J[…] GABA A GAMMA! POSITIVE ALLOSTERIC MODULATORS” (Hoffmann-La Roche Inc., priority 2020, published 2024)

Key:
[1] = biological target: human GABAA α5β2γ1 receptor (Homo sapiens (Human), UniProt P31644+Q8N1C3); test: Radioligand binding assay, [3H]RO7239181 competition, γ1-containing GABAA subtypes; details: HEK293F membranes, mean of two determinations
Protocol: The affinity of compounds at GABAA γ1 subunit-containing receptors was measured by competition for [^3H]RO7239181 (67.3 Ci/mmol; Roche) binding to membranes from HEK293F cells (ThermoFisher R79007) expressing human (transiently transfected) receptors of composition α5β2γ1, α2β2γ1, α1β2γ1. For better protein expression of the α2 subunit-containing receptors, the 28 amino acid long signal peptide (Met1 to Ala28) of the human GABAA α2 subunit was substituted by the 31 amino acid long signal peptide (Met1 to Ser31) of human GABAA α5 subunit.
(§1) Harvested pellets from HEK293F cells expressing the different GABAA receptor subtypes were resuspended in Mannitol Buffer pH 7.2-7.4 (Mannitol 0.29M, Triethylamine 10 mM, Acetic acid 10 mM, EDTA 1 mM plus protease inhibitors (20 tablets Complete, Roche Diagnostics Cat. No. 05 056 489 001 per liter)), washed two times and then resuspended at 1:10 to 1:15 dilution in the same buffer. Cell disruption was performed by stirring the suspension in a Parr vessel #4637 at 435 psi for 15 minutes, and then the suspensions were centrifuged at 1000×g for 15 minutes at 4° C. (Beckman Avanti J-HC; rotor JS)-4.2). The supernatant (S1) was transferred in a 21 Schott flask and the pellet (P1) was resuspended with Mannitol Buffer up to 175 ml. The resuspended pellet was transferred into a 250 ml Corning centrifugal beaker and centrifuged at 1500×g for 10 minutes at 4° C. (Beckman Avanti J-HC; rotor JS)-4.2). The supernatant (S1) was then transferred in the 21 Schott flask and the pellet was discarded. The supernatants (S1) were centrifuged in 500 ml Beckman polypropylene centrifugal beaker at 15,000×g for 30 minutes at 4° C. (Beckman Avanti J-20 XP; rotor JLA-10.500). The pellet (P2) was resuspended with Mannitol Buffer 1:1 and frozen at −80° C. The supernatant (S2) was centrifuged in 100 ml Beckman polypropylene centrifugal tubes at 48000×g for 50 minutes at […] (Beckman Avanti J-20 XP; rotor JA-18). The supernatant (S3) was discarded and the pellet (P3) was resuspended with 1:1 Mannitol Buffer. The P2 and P3 protein concentration was determined with the BIORAD Standard assay method with bovine serum albumin as standard and measured on the NANO-Drop 1000. The membrane suspension was aliquots (500 μl per tube) and stored at −80° C. until required.
(§2) Membrane homogenates were resuspended and polytronised (Polytron PT1200E Kinematica AG) in Potassium Phosphate 10 mM, KCl 100 mM binding buffer at pH 7.4 to a final assay concentration determined with a previous experiment.
Radioligand binding assays were carried out in a volume of 200 µL (96-well plates) which contained 100 μL of cell membranes, [^3H]RO7239181 at a concentration of 1.5 nM (α5β2γ1) or 20-30 nM (α1β2γ1, 2β2γ1) and the test compound in the range of [0.3-10000]×10^−9 M. Nonspecific binding was defined by 10×10^−6 (α5β2γ1) and 30×10^−6 M RO7235136 and typically represented less than 5% (α5β2γ1) and less than 20% (α1β2γ1, α2β2γ1) of the total binding. Assays were incubated to equilibrium for 1 hour at 4° C. and then, membranes were filtered onto unifilter (96-well white microplate with bonded GF/C filters preincubated 20-50 minutes in 0.3% Polyethylenimine) with a Filtermate 196 harvester (Packard BioScience) and washed 4 times with cold Potassium Phosphate 10 mM pH 7.4, KCl 100 mM binding buffer. After drying, filter-retained radioactivity was detected by liquid scintillation counting. K, values were calculated using Excel-Fit (Microsoft) and are the means of two determinations.
Representative test results, obtained by the above described assay measuring binding affinity to HEK293 cells expressing human (h) receptors, are shown in the Table 1.

[2] = biological target: human GABAA α2β2γ1 receptor (Homo sapiens (Human), UniProt P47869+Q8N1C3); test: as above; details: for Ki: HEK293F membranes, [3H]RO7239181 20-30 nM, mean of two determinations, read-out: Ki h-GABAA α2β2γ1; for γ2/γ1 Selectivity Ratio: Ki α1β3γ2 (nM)/Ki α2β2γ1 (nM); for LogSel: Log[Ki α1β3γ2 (nM)/Ki α2β2γ1 (nM)]
Protocol: (§3) The affinity of compounds at GABAA γ1 subunit-containing receptors was measured by competition for [^3H]RO7239181 (67.3 Ci/mmol; Roche) binding to membranes from HEK293F cells (ThermoFisher R79007) expressing human (transiently transfected) receptors of composition α5β2γ1, α2β2γ1, α1β2γ1.
as §1, §2
(§4) Assays were incubated to equilibrium for 1 hour at 4° C. and then, membranes were filtered onto unifilter (96-well white microplate with bonded GF/C filters preincubated 20-50 minutes in 0.3% Polyethylenimine) with a Filtermate 196 harvester (Packard BioScience) and washed 4 times with cold Potassium Phosphate 10 mM pH 7.4, KCl 100 mM binding buffer. After drying, filter-retained radioactivity was detected by liquid scintillation counting. K, values were calculated using Excel-Fit (Microsoft) and are the means of two determinations.

[3] = biological target: human GABAA α1β3γ2 receptor (Homo sapiens (Human), UniProt P14867+P18507); test: Radioligand binding assay, [3H]Flumazenil competition, γ2-containing GABAA subtypes; details: HEK293F membranes, [3H]Flumazenil 1 nM, mean of two determinations; read-out: Ki h-GABAA α1β3γ2
Protocol: The affinity of compounds at GABAA γ2 subunit-containing receptors was measured by competition for [^3H]Flumazenil (81.1 Ci/mmol; Roche) binding to HEK293F cells expressing human (transiently transfected) receptors of composition α1β3γ2.
Harvested pellets from HEK293F cells expressing the different GABAA γ2 receptor subtypes were resuspended in Mannitol Buffer pH 7.2-7.4 and processed as described above for the cells expressing the GABAA γ1 subunit-containing receptors.
Assays were incubated to equilibrium for 1 hour at 4° C. and harvested onto GF/C uni-filters (Packard) by filtration using a Packard harvester and washing with ice-cold wash buffer (50 mM Tris; pH 7.5). After drying, filter-retained radioactivity was detected by liquid scintillation counting. Ki values were calculated using Exel-Fit (Microsoft) and are the means of two determinations.

[4] = biological target: human GABAA α1β2γ1 receptor (Homo sapiens (Human), UniProt P14867+Q8N1C3); test: Radioligand binding assay, [3H]RO7239181 competition, γ1-containing GABAA subtypes; details: HEK293F membranes, [3H]RO7239181 20-30 nM, mean of two determinations
Protocol: as §3, §1, §2, §4

SMILES | Ki [1] [nM] | Ki [2] [nM] | γ2/γ1 Selectivity Ratio [2] | LogSel [2] | Ki [3] [nM] | Ki [4] [nM]
Cc1nnc2n1-c1ccc(C(F)(F)F)c(Cl)c1C(c1c(F)cccc1F)=N[C@H]2CO [Example 106, [(4R)-7-chloro-6-(2,6-difluorophenyl)-1-methyl-8-(trifluoromethyl)-4H-[1,2,4]triazlo[4,3-a][1,4]benzodiazepin-4-yl]methanol] | 4.3 | 71.3 | 107.1 | 2.03 | 7640 | –
C[C@@H]1N=C(c2c(F)cccc2F)c2c(ccc(Cl)c2Br)-n2c(-c3cnn(C)c3)nnc21 [Example 76, (4S)-7-bromo-8-chloro-6-(2,6-difluorophenyl)-4-methyl-1-(1-methylpyrazol-4-yl)-4H-[1,2,4]triazolo[4,3-a][1,4]benzodiazepine] | 3.6 | 24.9 | 21.3 | 1.33 | 530 | 44.6
C[C@@H]1N=C(c2c(F)cccc2F)c2c(ccc(Cl)c2Cl)-n2c(-c3cccnn3)nnc21 [Example 56, (4S)-7,8-dichloro-6-(2,6-difluorophenyl)-4-methyl-1-pyridazin-3-yl-4H-[1,2,4]triazolo[4,3-a][1,4]benzodiazepine] | 0.8 | 4.6 | 186.8 | 2.27 | 850 | 3.8
Cc1nnc2n1-c1ccc(Cl)c(Br)c1C(c1c(F)cccc1F)=N[C@H]2C [Example 80, (4S)-7-bromo-8-chloro-6-(2,6-difluorophenyl)-1,4-dimethyl-4H-[1,2,4]triazolo[4,3-a][1,4]benzodiazepine] | 3 | 23.6 | 45.3 | 1.66 | 1070 | 42.6
C[C@@H]1N=C(c2ccccc2F)c2c(ccc(Br)c2Cl)-n2c(-c3cccnn3)nnc21 [Example 32, (4S)-8-bromo-7-chloro-6-(2-fluorophenyl)-4-methyl-1-pyridazin-3-yl-4H-[1,2,4]triazolo[4,3-a][1,4]benzodiazepine] | 1.3 | 10.5 | 98.2 | 1.99 | 1030 | 33.3
C[C@@H]1N=C(c2c(F)cccc2F)c2c(ccc(Cl)c2Cl)-n2c1n[nH]c2=O [Example 64, (4S)-7,8-dichloro-6-(2,6-difluorophenyl)-4-methyl-2,4-dihydro-[1,2,4]triazolo[4,3-a][1,4]benzodiazepin-1-one] | 0.5 | 13.2 | 45.8 | 1.66 | 602 | 11.5
COC[C@@H]1N=C(c2c(F)cccc2F)c2c(ccc(Br)c2Cl)-n2c(C)nnc21 [Example 100, (4R)-8-bromo-7-chloro-6-(2,6-difluorophenyl)-4-(methoxymethyl)-1-methyl-4H-[1,2,4]triazolo[4,3-a][1,4]benzodiazepine] | 3.4 | 19.8 | 14.6 | 1.16 | 288 | 34
C[C@@H]1N=C(c2c(F)cccc2F)c2c(ccc(Cl)c2Cl)-n2c(-c3ccncn3)nnc21 [Example 52, (4S)-7,8-dichloro-6-(2,6-difluorophenyl)-4-methyl-1-pyrimidin-4-yl-4H-[1,2,4]triazolo[4,3-a][1,4]benzodiazepine] | 1.1 | 5.7 | 112.4 | 2.05 | 638 | 10.2
C[C@@H]1N=C(c2c(F)cccc2F)c2c(ccc(C(F)(F)F)c2Cl)-n2cnnc21 [Example 107, (4S)-7-chloro-6-(2,6-difluorophenyl)-4-methyl-8-(trifluoromethyl)-4H-[1,2,4]triazolo[4,3-a][1,4]benzodiazepine] | 3 | 68.3 | 51.8 | 1.71 | 3530 | –
C[C@@H]1N=C(c2c(F)cccc2F)c2c(ccc(Cl)c2Cl)-n2c(-c3cnn(C)c3)nnc21 [Example 53, (4S)-7,8-dichloro-6-(2,6-difluorophenyl)-4-methyl-1-(1-methylpyrazol-4-yl)-4H-[1,2,4]triazolo[4,3-a][1,4]benzodiazepine] | 1.1 | 3 | 82.0 | 1.91 | 246 | 14.4
C[C@@H]1N=C(c2c(F)cccc2F)c2c(ccc(Cl)c2Br)-n2c(-c3ccn(C)n3)nnc21 [Example 81, (4S)-7-bromo-8-chloro-6-(2,6-difluorophenyl)-4-methyl-1-(1-methylpyrazol-3-yl)-4H-[1,2,4]triazolo[4,3-a][1,4]benzodiazepine] | 4.3 | 36.3 | 43.0 | 1.63 | 1560 | 101
CCc1ccc2c(c1Cl)C(c1c(F)cccc1F)=N[C@@H](C)c1nnc(C)n1-2 [Example 109, (4S)-7-chloro-6-(2,6-difluorophenyl)-8-ethyl-1,4-dimethyl-4H-[1,2,4]triazolo[4,3-a][1,4]benzodiazepine] | 3.7 | 65.8 | 11.5 | 1.06 | 754 | –
COC[C@@H]1N=C(c2c(F)cccc2F)c2c(ccc(C(F)(F)F)c2Cl)-n2c(C)nnc21 [Example 105, (4R)-7-chloro-6-(2,6-difluorophenyl)-4-(methoxymethyl)-1-methyl-8-(trifluoromethyl)-4H-[1,2,4]triazolo[4,3-a][1,4]benzodiazepine] | 20.1 | 99.3 | 73.9 | 1.87 | 7340 | –
